Consider five compounds from ChEMBL document CHEMBL4420065, “Synaptojanin-2 inhibitors for use in the treatment of cancer” (2017).

The source made the active and inactive calls. The calls are words filed in the database; no cut-off is given here.

This assay deals with MDA-MB-231. Conditions: Homo sapiens, 10 uM.
Description: Inhibition of cell invasion of human MDA-MB-231 cells at 10 uM incubated for 96 hrs by Matrigel based assay
`C/C(=C\CO[C@@H]1O[C@H](CO)[C@@H](O)[C@H](O)[C@H]1O)C(O)CCC(C)(C)O` (stereo not given in full): the inhibition entry is “Active”.
The same measure for `COc1cc(O)cc(O)c1C(=O)c1ccc(O)c(O)c1`: “Active”; for `O=C1C[C@@H](c2ccc(O)c(O)c2)Oc2cc(O[C@@H]3O[C@H](CO)[C@@H](O)[C@H](O)[C@H]3O)cc(O)c21`: “Active”.
The same measure for `Cc1c(O)cc2c(c1O)C(=O)[C@H](O)[C@@H](c1ccc(O)c(O)c1)O2`: “Active”; for `COc1cc(C2c3c(cc(OC)c(O)c3OC)CC(CO)C2COC2OCC(O)C(O)C2O)cc(OC)c1O` (stereo not given): “Active”.
